Experimental data reported in US20240317777A1, “NOVEL MACROCYCLIC AMINOPYRAZOLE COMPOUNDS AS CDK2 INHIBITORS” (Accutar Biotechnology Inc., priority 2023, published 2024).
Where two headings read alike, the source gives them in different places.

Assays:
[1] = system: Phospho-Rb (Ser807/811) in OVCAR3 cells; assay: Phospho-Rb expression inhibition in OVCAR3 cells quantified by In Cell Western; format: cell-based; details: Homo sapiens, OVCAR-3, 24 hours, read-out: OVCAR-3 pRb IC50
Procedure, shortened: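 In-cell western: after 24 h compound exposure at 37° C, fixed OVCAR3 cells co-stained for pRb Ser807/811 (800 nm channel) and total Rb (680 nm channel), imaged by LI-COR Odyssey.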

CDK9-CYCLIN T1 = CDK9-CYCLIN T1 (Homo sapiens, UniProt P50750); assay: CDK protein kinase inhibition by ADP-Glo assay, CDK9-CYCLIN T1; format: biochemical; details: ADP-Glo, 1000 μM ATP, read-out: CDK9-CYCLINT1, IC50
Procedure, shortened: (§1)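 Luminescent ADP-Glo read-out of ADP generated as kinase/cyclin complexes turn over peptide substrate. Reactions ran at 22° C with 1000 μM ATP, 5 mM Mg2+, pH 7.5 HEPES buffer, 1% DMSO.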

CDK2-CYCLIN E1 = CDK2-CYCLIN E1 (Homo sapiens, UniProt P24941); assay: CDK protein kinase inhibition by ADP-Glo assay, CDK2-CYCLIN E1; format: biochemical; details: ADP-Glo, 1000 μM ATP, read-out: CDK2-CYCLINE, IC50
Procedure, shortened: as §1

CDK1-CYCLIN B = CDK1-CYCLIN B (Homo sapiens, UniProt P06493); assay: CDK protein kinase inhibition by ADP-Glo assay, CDK1-CYCLIN B; format: biochemical; details: ADP-Glo, 1000 μM ATP, read-out: CDK1-CYCLINB, IC50
Procedure, shortened: as §1

CDK4-CYCLIN D1 = CDK4-CYCLIN D1 (Homo sapiens, UniProt P11802); assay: CDK protein kinase inhibition by ADP-Glo assay, CDK4-CYCLIN D1; format: biochemical; details: ADP-Glo, 1000 μM ATP, read-out: CDK4-CYCLIND1, IC50
Procedure, shortened: as §1

CDK6-CYCLIN D3 = CDK6-CYCLIN D3 (Homo sapiens, UniProt Q00534); assay: CDK protein kinase inhibition by ADP-Glo assay, CDK6-CYCLIN D3; format: biochemical; details: ADP-Glo, 1000 μM ATP, read-out: CDK6-CYCLIND3, IC50
Procedure, shortened: as §1

[2] = system: CCNE1-amplified OVCAR3 cells; assay: Cell growth inhibition of CCNE1-amplified OVCAR3 cells (CellTiter-Glo); format: cell-based; details: Homo sapiens, OVCAR-3, 144 h, 6 days
Procedure, shortened: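 Growth read-out was CellTiter-Glo luminescence, taken after 10 min at room temperature at the end of a 6-day compound exposure at 37 °C. Compounds were diluted from DMSO stocks across various concentrations.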

CCNE1-normal SKOV3 cells = assay: Cell growth inhibition of CCNE1-normal SKOV3 cells (CellTiter-Glo); format: cell-based; details: Homo sapiens, SK-OV-3, 144 h, 6 days
Procedure, shortened: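 Growth was measured by CellTiter-Glo luminescence after 6 days' compound exposure at 37 °C. Cells were plated one day before dosing at 1000 per well in medium with 10% FBS, and compounds were diluted from DMSO stocks.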

CDK4-CYCLIN D1, sequence (P11802 whole entry): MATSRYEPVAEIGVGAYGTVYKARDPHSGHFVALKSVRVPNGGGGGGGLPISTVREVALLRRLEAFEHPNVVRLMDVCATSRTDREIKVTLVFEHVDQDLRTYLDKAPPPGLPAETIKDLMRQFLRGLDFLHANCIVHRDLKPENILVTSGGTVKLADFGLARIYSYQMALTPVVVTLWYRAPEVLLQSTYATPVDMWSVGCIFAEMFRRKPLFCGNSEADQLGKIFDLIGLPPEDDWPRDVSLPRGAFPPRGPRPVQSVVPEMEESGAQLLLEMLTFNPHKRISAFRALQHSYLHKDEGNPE
CDK4-CYCLIN D1, sequence (P24385 whole entry partner): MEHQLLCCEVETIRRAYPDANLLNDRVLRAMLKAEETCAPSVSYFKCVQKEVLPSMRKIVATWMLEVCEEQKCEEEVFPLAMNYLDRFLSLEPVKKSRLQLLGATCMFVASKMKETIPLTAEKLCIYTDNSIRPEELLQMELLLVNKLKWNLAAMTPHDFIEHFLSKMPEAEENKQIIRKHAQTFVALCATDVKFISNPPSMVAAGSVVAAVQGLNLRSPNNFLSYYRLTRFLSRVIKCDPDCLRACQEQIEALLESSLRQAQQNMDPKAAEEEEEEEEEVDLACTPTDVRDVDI
CDK6-CYCLIN D3, sequence (Q00534 whole entry): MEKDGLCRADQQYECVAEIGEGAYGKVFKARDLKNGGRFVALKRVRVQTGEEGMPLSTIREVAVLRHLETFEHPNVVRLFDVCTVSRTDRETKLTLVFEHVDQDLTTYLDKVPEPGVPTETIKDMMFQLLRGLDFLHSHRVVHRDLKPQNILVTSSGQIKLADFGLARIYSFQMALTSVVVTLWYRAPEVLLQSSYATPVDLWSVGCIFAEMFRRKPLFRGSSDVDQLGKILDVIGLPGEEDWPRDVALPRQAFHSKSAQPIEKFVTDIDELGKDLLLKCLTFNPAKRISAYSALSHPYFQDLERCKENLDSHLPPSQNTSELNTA
CDK6-CYCLIN D3, sequence (P30281 whole entry partner): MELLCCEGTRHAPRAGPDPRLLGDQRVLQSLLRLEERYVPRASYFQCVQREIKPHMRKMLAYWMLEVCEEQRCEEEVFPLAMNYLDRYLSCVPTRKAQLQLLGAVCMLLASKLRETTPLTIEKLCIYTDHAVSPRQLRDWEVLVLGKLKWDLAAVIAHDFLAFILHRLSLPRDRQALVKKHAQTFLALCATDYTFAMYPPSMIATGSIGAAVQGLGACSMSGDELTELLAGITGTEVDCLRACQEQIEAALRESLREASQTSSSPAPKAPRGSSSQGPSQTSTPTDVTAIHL
CDK1-CYCLIN B, sequence (P06493 whole entry): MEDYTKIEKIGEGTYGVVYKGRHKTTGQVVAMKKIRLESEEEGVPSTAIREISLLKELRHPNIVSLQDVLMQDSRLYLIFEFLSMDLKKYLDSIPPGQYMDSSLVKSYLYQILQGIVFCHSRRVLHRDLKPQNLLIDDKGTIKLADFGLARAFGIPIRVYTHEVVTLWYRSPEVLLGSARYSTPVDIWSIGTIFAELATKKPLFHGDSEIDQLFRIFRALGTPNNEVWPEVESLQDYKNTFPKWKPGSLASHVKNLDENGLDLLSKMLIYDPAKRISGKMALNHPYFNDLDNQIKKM
CDK1-CYCLIN B, sequence (P14635 whole entry partner): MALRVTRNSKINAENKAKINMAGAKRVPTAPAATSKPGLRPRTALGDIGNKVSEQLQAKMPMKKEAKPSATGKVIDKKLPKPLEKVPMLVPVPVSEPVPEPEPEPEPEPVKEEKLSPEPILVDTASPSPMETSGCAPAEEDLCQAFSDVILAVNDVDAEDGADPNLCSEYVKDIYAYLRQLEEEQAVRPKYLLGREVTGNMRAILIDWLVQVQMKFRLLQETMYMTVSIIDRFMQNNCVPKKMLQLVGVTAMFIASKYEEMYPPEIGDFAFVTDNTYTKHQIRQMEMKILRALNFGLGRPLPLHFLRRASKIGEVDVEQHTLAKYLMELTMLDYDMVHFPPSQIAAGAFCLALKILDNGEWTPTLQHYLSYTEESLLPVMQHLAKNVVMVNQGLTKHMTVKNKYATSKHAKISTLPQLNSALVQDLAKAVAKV
CDK9-CYCLIN T1, sequence (P50750 whole entry): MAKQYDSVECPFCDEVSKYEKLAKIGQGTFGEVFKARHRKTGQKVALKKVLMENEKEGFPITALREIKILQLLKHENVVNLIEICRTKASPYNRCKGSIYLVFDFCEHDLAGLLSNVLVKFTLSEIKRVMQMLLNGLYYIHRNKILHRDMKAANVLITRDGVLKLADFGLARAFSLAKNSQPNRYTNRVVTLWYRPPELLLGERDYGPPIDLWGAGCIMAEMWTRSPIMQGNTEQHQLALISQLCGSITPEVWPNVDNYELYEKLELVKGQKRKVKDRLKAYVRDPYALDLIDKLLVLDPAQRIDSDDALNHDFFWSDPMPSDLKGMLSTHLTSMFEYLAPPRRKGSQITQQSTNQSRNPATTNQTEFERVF
CDK9-CYCLIN T1, sequence (O60563 whole entry partner): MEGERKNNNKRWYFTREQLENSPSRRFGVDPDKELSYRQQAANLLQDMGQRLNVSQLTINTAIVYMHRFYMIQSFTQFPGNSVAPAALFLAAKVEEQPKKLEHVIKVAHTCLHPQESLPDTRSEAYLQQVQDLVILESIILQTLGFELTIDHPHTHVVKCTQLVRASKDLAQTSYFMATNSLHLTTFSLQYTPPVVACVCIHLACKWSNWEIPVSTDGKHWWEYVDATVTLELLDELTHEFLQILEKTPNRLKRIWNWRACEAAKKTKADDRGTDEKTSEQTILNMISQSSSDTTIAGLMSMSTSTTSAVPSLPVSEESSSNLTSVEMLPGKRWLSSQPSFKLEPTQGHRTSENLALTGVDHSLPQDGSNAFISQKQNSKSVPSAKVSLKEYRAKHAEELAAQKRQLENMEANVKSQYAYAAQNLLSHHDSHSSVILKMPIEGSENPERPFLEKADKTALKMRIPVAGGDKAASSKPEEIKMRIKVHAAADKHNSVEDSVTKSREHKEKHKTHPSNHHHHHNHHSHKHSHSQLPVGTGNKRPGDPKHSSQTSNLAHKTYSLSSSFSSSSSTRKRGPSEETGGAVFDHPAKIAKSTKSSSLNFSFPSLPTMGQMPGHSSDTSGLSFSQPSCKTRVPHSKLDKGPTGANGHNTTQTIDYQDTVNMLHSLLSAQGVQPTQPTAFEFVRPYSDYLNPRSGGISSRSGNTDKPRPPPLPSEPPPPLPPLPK

SMILES: C[C@@H]1CCC2(CC2)NC(=O)O[C@@H]2CC[C@@H](C2)c2cc([nH]n2)Nc2ccnc(c2)O1 [compound 109]
- IC50 [1]: 0.002 to 0.01 µM
- IC50 (CDK9-CYCLIN T1; Table 9): 0.1 to 0.5 µM
- IC50 (CDK2-CYCLIN E1; Table 9): ≤ 0.01 µM
- IC50 (CDK1-CYCLIN B; Table 9): 0.01 to 0.05 µM
- IC50 (CDK4-CYCLIN D1; Table 9): 0.05 to 0.1 µM
- IC50 (CDK6-CYCLIN D3; Table 9): 0.1 to 0.5 µM
- IC50 [2]: 0.01 to 0.05 µM
- IC50 (CCNE1-normal SKOV3 cells): 0.25 to 1.25 µM

SMILES: O=C1N[C@H]2C[C@H](CCc3cc(ccn3)Nc3cc(n[nH]3)[C@H]3CC[C@H](C3)O1)C2 [compound 140]
- IC50 [1]: 0.002 to 0.01 µM
- IC50 (CDK9-CYCLIN T1; Table 19): 0.01 to 0.05 µM
- IC50 (CDK2-CYCLIN E1; Table 19): ≤ 0.01 µM
- IC50 (CDK1-CYCLIN B; Table 19): 0.01 to 0.05 µM
- IC50 (CDK4-CYCLIN D1; Table 19): 0.01 to 0.05 µM
- IC50 (CDK6-CYCLIN D3; Table 19): 0.05 to 0.1 µM
- IC50 [2]: 0.01 to 0.05 µM
- IC50 (CCNE1-normal SKOV3 cells): 0.05 to 0.25 µM

SMILES: C[C@@H]1Oc2cc(ccn2)Nc2cc(n[nH]2)[C@H]2CC[C@H](C2)OC(=O)N[C@H]2C[C@H]1C2 [compound 146]
- IC50 [1]: 0.01 to 0.05 µM
- IC50 (CDK9-CYCLIN T1; Table 21): > 0.5 µM
- IC50 (CDK2-CYCLIN E1; Table 21): ≤ 0.01 µM
- IC50 (CDK1-CYCLIN B; Table 21): 0.1 to 0.5 µM
- IC50 (CDK4-CYCLIN D1; Table 21): > 0.5 µM
- IC50 (CDK6-CYCLIN D3; Table 21): 0.1 to 0.5 µM
- IC50 [2]: 0.01 to 0.05 µM
- IC50 (CCNE1-normal SKOV3 cells): 0.25 to 1.25 µM

SMILES: C[C@H]1CCO[C@H](C)c2cc(ccn2)Nc2cc(n[nH]2)[C@H]2CC[C@H](C2)OC(=O)N1 [compound 158]
- IC50 [1]: 0.01 to 0.05 µM
- IC50 (CDK9-CYCLIN T1; Table 23): > 0.5 µM
- IC50 (CDK2-CYCLIN E1; Table 23): 0.01 to 0.05 µM
- IC50 (CDK1-CYCLIN B; Table 23): 0.1 to 0.5 µM
- IC50 (CDK4-CYCLIN D1; Table 23): 0.1 to 0.5 µM
- IC50 (CDK6-CYCLIN D3; Table 23): > 0.5 µM
- IC50 [2]: 0.01 to 0.05 µM
- IC50 (CCNE1-normal SKOV3 cells): 0.25 to 1.25 µM

SMILES: C[C@@H]1OCC[C@H](C)NC(=O)O[C@@H]2CC[C@@H](C2)c2cc([nH]n2)Nc2ccnc1c2 [compound 159]
- IC50 [1]: 0.002 to 0.01 µM
- IC50 (CDK9-CYCLIN T1; Table 23): 0.05 to 0.1 µM
- IC50 (CDK2-CYCLIN E1; Table 23): ≤ 0.01 µM
- IC50 (CDK1-CYCLIN B; Table 23): 0.01 to 0.05 µM
- IC50 (CDK4-CYCLIN D1; Table 23): 0.01 to 0.05 µM
- IC50 (CDK6-CYCLIN D3; Table 23): 0.05 to 0.1 µM
- IC50 [2]: 0.002 to 0.01 µM
- IC50 (CCNE1-normal SKOV3 cells): 0.05 to 0.25 µM

SMILES: C[C@H]1CC[C@H](C)Oc2cc(ccn2)Nc2cc(n[nH]2)[C@H]2CC[C@H](C2)OC(=O)N1 [compound 162]
- IC50 [1]: 0.002 to 0.01 µM
- IC50 (CDK9-CYCLIN T1; Table 21): 0.1 to 0.5 µM
- IC50 (CDK2-CYCLIN E1; Table 21): ≤ 0.01 µM
- IC50 (CDK1-CYCLIN B; Table 21): 0.01 to 0.05 µM
- IC50 (CDK4-CYCLIN D1; Table 21): 0.1 to 0.5 µM
- IC50 (CDK6-CYCLIN D3; Table 21): 0.1 to 0.5 µM
- IC50 [2]: 0.01 to 0.05 µM
- IC50 (CCNE1-normal SKOV3 cells): 0.25 to 1.25 µM

SMILES: C[C@@H]1CC[C@H](C)Oc2cc(ccn2)Nc2cc(n[nH]2)[C@H]2CC[C@H](C2)OC(=O)N1 [compound 163]
- IC50 [1]: 0.01 to 0.05 µM
- IC50 (CDK9-CYCLIN T1; Table 23): 0.1 to 0.5 µM
- IC50 (CDK2-CYCLIN E1; Table 23): ≤ 0.01 µM
- IC50 (CDK1-CYCLIN B; Table 23): 0.05 to 0.1 µM
- IC50 (CDK4-CYCLIN D1; Table 23): 0.1 to 0.5 µM
- IC50 (CDK6-CYCLIN D3; Table 23): 0.1 to 0.5 µM
- IC50 [2]: 0.01 to 0.05 µM
- IC50 (CCNE1-normal SKOV3 cells): 0.25 to 1.25 µM
